Broadly, the IC50 is the point on the concentration scale where inhibition reaches its midpoint.

One test concerns the target T1, caspase-3 (C3) (Homo sapiens, UniProt P42574).
T1 sequence (P42574 29-175 limits assumed): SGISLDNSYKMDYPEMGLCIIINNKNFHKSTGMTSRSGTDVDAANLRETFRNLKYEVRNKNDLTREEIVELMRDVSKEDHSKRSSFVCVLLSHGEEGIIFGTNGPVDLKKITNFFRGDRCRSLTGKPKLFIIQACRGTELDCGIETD
In words: Caspase-3 biochemical activity assay with fluorogenic substrate. The text has this: Error bars represent the standard deviation of thre replicate measurements. […] Activity measured by the cleavage of aminofluorocoumarin-labeled peptides (see the Supporting Information for sequences). C = caspase.

The target of test [1] is proteins of HEK293T cells transiently overexpressing caspase-6 (Homo sapiens, UniProt O00571). In words: SILAC proteomics / in-gel fluorescence, competition of probe 13-t labeling by 3a.
Chain of proteins of HEK293T cells transiently overexpressing caspase-6 (Homo sapiens, UniProt O00571) (O00571 whole entry): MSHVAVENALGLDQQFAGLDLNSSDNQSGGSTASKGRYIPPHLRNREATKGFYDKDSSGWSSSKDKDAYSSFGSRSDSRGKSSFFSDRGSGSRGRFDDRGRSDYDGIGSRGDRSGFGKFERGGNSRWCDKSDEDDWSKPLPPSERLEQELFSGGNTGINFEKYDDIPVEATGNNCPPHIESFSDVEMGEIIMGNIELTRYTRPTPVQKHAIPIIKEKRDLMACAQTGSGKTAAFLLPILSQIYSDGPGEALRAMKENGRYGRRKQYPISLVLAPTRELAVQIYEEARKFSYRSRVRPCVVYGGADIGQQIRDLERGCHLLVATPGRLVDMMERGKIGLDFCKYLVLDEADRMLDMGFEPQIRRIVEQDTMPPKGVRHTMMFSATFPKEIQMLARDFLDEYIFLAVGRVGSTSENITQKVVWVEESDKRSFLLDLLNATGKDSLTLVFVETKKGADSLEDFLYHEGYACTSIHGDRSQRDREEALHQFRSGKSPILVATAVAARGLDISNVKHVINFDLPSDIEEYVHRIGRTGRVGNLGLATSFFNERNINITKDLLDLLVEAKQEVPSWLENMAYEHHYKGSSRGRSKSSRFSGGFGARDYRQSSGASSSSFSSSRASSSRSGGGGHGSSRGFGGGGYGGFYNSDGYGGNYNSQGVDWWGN
For test [2], the target named is proteins of HEK293T cells transiently overexpressing caspase-6 (Homo sapiens, UniProt O43143). The description is as above. The conditions noted are these: Comp; protein DHX15 O43143.
Chain of proteins of HEK293T cells transiently overexpressing caspase-6 (Homo sapiens, UniProt O43143) (O43143 whole entry): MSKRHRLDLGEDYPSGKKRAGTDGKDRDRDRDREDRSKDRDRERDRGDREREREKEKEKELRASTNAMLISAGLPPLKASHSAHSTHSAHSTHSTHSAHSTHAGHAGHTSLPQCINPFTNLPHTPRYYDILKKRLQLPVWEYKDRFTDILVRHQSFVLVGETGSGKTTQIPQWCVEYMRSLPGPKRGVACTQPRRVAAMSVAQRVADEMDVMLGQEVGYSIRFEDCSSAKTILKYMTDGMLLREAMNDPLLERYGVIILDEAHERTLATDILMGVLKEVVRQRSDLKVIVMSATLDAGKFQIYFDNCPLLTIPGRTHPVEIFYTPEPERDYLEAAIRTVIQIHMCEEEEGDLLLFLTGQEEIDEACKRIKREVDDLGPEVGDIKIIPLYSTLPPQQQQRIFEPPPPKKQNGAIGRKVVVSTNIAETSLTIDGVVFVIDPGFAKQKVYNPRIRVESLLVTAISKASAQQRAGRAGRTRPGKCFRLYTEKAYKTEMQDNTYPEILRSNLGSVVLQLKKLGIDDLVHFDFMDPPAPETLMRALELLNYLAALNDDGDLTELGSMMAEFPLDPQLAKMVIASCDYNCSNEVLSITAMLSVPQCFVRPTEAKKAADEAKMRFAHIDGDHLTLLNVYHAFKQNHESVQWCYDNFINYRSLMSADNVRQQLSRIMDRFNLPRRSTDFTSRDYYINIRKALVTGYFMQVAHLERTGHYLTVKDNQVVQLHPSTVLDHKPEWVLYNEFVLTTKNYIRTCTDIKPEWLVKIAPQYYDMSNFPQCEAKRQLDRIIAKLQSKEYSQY
In test [3] the target is T2, proteins of HEK293T cells transiently overexpressing caspase-6 (Homo sapiens, UniProt O43175).
T2 sequence (O43175 1-533): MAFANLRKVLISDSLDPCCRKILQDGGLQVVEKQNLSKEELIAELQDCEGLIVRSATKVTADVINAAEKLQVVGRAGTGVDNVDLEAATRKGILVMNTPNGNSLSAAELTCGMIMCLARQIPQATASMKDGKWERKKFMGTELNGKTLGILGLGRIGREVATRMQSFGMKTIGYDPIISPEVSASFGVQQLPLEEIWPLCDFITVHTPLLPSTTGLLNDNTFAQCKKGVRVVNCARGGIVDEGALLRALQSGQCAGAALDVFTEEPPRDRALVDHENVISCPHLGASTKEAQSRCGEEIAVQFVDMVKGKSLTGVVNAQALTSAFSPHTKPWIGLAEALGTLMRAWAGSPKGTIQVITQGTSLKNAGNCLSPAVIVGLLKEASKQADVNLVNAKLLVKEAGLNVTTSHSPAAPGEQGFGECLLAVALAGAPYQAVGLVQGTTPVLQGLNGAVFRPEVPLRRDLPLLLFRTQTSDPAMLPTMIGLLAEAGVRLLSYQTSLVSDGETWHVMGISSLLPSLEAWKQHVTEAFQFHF
The test is described as above. Particulars: Comp; protein PHGDH O43175.

For test [4], the target named is proteins of HEK293T cells transiently overexpressing caspase-6 (Homo sapiens, UniProt P09211). The test is described as above.
Chain of proteins of HEK293T cells transiently overexpressing caspase-6 (Homo sapiens, UniProt P09211) (P09211 whole entry): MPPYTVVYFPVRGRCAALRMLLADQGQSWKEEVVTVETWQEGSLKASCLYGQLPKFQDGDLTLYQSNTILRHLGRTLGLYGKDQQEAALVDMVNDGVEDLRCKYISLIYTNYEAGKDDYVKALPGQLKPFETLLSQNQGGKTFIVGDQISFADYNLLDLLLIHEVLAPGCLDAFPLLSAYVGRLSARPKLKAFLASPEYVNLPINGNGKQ
In test [5] the target is proteins of HEK293T cells transiently overexpressing caspase-6 (Homo sapiens, UniProt P09874). Described as above. Particulars: Comp; protein PARP1 P09874.
Chain of proteins of HEK293T cells transiently overexpressing caspase-6 (Homo sapiens, UniProt P09874) (P09874 whole entry): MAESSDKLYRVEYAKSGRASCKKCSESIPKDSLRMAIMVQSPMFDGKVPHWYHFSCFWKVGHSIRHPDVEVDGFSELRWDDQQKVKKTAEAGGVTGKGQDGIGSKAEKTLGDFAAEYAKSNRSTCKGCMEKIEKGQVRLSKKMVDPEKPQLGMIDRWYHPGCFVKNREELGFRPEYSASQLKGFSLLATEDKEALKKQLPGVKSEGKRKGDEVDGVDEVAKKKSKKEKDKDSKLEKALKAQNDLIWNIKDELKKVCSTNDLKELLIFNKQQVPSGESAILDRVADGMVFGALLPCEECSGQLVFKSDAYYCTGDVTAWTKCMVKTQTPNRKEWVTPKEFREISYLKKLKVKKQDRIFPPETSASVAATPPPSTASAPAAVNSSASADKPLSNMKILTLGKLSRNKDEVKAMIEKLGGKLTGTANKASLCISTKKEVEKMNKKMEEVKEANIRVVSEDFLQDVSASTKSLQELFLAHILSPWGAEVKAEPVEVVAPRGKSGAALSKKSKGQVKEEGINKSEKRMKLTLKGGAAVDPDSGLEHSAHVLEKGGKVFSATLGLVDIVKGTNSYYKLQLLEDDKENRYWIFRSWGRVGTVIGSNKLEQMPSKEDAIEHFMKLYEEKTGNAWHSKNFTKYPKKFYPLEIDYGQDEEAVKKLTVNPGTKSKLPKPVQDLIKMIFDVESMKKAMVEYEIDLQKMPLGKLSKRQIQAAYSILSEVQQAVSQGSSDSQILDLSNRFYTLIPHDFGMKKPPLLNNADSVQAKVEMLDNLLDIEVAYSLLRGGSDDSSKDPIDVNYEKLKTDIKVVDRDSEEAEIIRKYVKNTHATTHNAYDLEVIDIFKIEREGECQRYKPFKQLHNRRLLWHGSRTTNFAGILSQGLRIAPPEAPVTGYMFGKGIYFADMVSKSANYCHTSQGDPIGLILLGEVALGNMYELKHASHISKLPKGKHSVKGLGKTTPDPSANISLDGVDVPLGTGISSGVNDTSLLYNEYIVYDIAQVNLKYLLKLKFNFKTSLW
Test [6] concerns the target proteins of HEK293T cells transiently overexpressing caspase-6 (Homo sapiens, UniProt P12268). The description is as above.
Test [7] addresses proteins of HEK293T cells transiently overexpressing caspase-6 (Homo sapiens, UniProt P12956). The description is as above. Particulars: Comp; protein XRCC6 P12956.
Test [8] concerns the target proteins of HEK293T cells transiently overexpressing caspase-6 (Homo sapiens, UniProt P13667). The test is described as above. The conditions noted are these: Comp; protein PDIA4 P13667.
Test [9] addresses T3, proteins of HEK293T cells transiently overexpressing caspase-6 (Homo sapiens, UniProt P40926).
T3 sequence (P40926 25-338): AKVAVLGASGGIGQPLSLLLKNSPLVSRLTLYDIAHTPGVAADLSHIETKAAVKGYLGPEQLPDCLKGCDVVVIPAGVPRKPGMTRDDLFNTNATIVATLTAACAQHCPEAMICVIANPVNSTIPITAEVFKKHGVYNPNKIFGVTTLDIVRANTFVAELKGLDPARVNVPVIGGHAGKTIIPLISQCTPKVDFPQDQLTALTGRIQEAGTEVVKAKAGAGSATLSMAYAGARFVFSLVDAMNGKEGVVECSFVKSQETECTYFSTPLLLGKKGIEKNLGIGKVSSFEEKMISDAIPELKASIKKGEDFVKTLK
The description is as above. The conditions noted are these: Comp; protein MDH2 P40926.

Test [10] deals with proteins of HEK293T cells transiently overexpressing caspase-6 (Homo sapiens, UniProt P52209). The test is described as above. The conditions noted are these: Comp; protein PGD P52209.
The target of test [11] is proteins of HEK293T cells transiently overexpressing caspase-6 (Homo sapiens, UniProt P52272). Described as above. Particulars: Comp; protein HNRNPM P52272.
Chain of proteins of HEK293T cells transiently overexpressing caspase-6 (Homo sapiens, UniProt P52272) (P52272 whole entry): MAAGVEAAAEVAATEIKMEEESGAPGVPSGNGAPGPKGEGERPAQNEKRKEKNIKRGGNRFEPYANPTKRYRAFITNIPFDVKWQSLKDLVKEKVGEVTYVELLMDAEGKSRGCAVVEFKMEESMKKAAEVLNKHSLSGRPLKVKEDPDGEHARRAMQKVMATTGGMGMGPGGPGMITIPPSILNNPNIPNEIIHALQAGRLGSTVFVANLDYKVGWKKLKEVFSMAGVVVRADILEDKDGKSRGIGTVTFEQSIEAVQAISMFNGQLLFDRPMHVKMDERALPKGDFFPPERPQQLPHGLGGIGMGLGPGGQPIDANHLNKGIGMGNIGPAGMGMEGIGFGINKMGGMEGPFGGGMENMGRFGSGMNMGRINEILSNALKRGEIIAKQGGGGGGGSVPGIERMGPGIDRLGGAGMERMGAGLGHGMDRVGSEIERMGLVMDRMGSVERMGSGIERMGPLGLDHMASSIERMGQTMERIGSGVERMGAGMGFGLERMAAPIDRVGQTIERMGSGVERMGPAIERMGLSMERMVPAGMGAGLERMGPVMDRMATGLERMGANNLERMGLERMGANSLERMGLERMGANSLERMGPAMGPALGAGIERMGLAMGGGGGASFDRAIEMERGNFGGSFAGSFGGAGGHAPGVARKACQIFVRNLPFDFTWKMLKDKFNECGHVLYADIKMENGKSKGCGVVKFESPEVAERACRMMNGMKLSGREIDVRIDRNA
In test [12] the target is proteins of HEK293T cells transiently overexpressing caspase-6 (Homo sapiens, UniProt P57088). The test is described as above. Particulars: Comp; protein TMEM33 P57088.
Chain of proteins of HEK293T cells transiently overexpressing caspase-6 (Homo sapiens, UniProt P57088) (P57088 whole entry): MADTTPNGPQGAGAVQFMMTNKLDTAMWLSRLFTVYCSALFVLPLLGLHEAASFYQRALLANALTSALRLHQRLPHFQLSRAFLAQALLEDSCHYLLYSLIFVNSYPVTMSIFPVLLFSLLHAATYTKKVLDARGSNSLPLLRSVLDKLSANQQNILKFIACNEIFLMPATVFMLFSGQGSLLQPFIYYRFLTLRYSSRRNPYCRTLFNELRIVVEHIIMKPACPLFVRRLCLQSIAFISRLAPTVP
The target of test [13] is proteins of HEK293T cells transiently overexpressing caspase-6 (Homo sapiens, UniProt Q12905). The test is described as above. Particulars: Comp; protein ILF2 Q12905.
Chain of proteins of HEK293T cells transiently overexpressing caspase-6 (Homo sapiens, UniProt Q12905) (Q12905 whole entry): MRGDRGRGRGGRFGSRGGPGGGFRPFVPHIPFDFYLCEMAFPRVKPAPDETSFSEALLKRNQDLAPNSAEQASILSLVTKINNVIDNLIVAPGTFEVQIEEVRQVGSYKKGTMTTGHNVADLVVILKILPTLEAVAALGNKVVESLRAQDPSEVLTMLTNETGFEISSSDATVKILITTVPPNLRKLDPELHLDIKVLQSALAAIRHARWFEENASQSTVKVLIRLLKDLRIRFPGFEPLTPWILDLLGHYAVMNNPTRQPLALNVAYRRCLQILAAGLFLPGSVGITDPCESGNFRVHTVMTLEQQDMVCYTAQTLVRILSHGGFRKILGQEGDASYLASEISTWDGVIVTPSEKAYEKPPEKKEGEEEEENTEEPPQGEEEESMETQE
[14] abbreviates: protein DDX3X (O00571), Exp Comp, analysis C6, p 0.1250, 4 peptides.
The mark [15] stands for this setting: protein GSTP1 (P09211), Exp Comp, analysis C6, p 0.5000, 2 peptides.
[16] abbreviates: protein IMPDH2 (P12268), Exp Comp, analysis C6, p 0.0078, 8 peptides.

Chain of proteins of HEK293T cells transiently overexpressing caspase-6 (Homo sapiens, UniProt P12956) (P12956 whole entry): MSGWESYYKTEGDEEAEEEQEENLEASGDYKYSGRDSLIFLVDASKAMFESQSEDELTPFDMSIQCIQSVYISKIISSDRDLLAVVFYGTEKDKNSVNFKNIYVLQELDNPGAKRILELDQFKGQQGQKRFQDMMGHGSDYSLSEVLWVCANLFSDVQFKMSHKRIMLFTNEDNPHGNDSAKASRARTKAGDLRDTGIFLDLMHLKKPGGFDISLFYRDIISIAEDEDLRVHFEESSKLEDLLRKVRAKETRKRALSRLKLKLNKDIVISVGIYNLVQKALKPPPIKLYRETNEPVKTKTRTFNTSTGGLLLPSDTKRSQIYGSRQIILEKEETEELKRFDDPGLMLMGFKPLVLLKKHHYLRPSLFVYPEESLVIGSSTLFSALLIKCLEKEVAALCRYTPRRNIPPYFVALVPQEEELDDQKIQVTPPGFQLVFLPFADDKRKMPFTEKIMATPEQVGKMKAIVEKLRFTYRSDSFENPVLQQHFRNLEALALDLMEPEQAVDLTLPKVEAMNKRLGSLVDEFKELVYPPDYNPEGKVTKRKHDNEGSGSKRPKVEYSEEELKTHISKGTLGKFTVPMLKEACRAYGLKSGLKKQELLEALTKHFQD

Regarding `C=CS(=O)(=O)N1C[C@H](C(=O)Nc2ccc(OC(F)(F)F)cc2)C[C@@H](c2ccccc2)C1` [3a], the “activity against C3 (in words)” value at caspase-3 (C3) was “lack of activity”. Also, the concentration for half-maximal inhibition (IC50) at caspase-3 (C3) (read-out: Casp-3 IC50) is over 500 µM. The enrich.exp.med in test [1] (Comp, protein DDX3X O00571) came to 1.089; in test [2] it was 0.7591; in [3] it was 0.8298; in test [4] (Comp, protein GSTP1 P09211) it was 0.9589; in test [5] it was 0.6484; in test [6] (Comp, protein IMPDH2 P12268), 0.9888. Besides, the enrich.exp.med is recorded as 0.7902 in test [7]; 0.6419 in [8]; 0.5931 in test [9]; 0.9271 in test [10]; 0.6442 in test [11]; 0.7492 in [12]. Also, the enrich.exp.med in test [13] was found to be 0.7326. The enrich.exp.med.lin is 2.128 in test [1] (setting [14]), 1.9438 in test [4] (setting [15]) and 1.985 in test [6] (setting [16]). Further, the figures for the enrich.exp.med.log2 in test [1] (setting [14]), in [4] (setting [15]) and in [6] (setting [16]) were 1.089, 0.9589 and 0.9888, respectively.

The values are drawn from PMC10176470, “Engaging a Non-catalytic Cysteine Residue Drives Potent and Selective Inhibition of Caspase-6” (Journal of the American Chemical Society, 2023).
